{
  "source": "patent US20080103198A1",
  "about": "“METHODS FOR TREATMENT OF COCHLEAR AND VESTIBULAR DISORDERS” (priority 2006, published 2008)",
  "tested_on": "transient cerebral ischemia (MCAO)",
  "assay": "Transient cerebral ischemia middle cerebral artery occlusion (MCAO) rat model",
  "format": "in vivo",
  "conditions": "N=12",
  "experimental": "The enantiomer of Formula 7 was investigated in the transient cerebral ischemia middle cerebral artery occlusion (MCAO) rat model (as described in Nagasawa H. and Kogure K., Stroke, 1989, 20, 1037; and, Zea Longa E., Weinstein P. R., Carlson S, and Cummins R., Stroke, 1989, 20, 84) using male Wistar rats at 10 and 100 mg/kg (i.v.). MK 801 (Dizocilpine maleate; CAS Registry number 77086-22-7, a commercially available neuroprotectant compound) was used as a positive control (3 mg/kg, i.p.).\nRats (n=12) were randomly allocated to one of four experimental groups and were anesthetized. Blood flow from the internal carotid artery, anterior cerebral artery and posterior cerebral artery into the middle cerebral artery was blocked by this procedure. One hour after blockage, animals were treated over a 1 hour period with vehicle (administered i.v. over the one hour period), control (administered as a single i.p. dose at the start of the one hour period) and two doses of the enantiomer of Formula 7 (administered i.v. over the one hour period). Two hours after blockage, reperfusion was performed.\nThe animals were sacrificed and […] coronal sections of each brain were prepared. One in every forty sections (i.e. every […]) from the front to the occipital cortex was used to quantify the extent of the cerebral lesion. Slides were prepared using sections stained (according to the Nissl procedure) with cresyl violet and were examined under a light microscope.\nRegional ischemic surface areas in the coronal sections of individual rats were determined according to the presence of cells with morphological changes. The areas of neuronal injury or infarction were measured and then added. The cortex and striatum volume were calculated for each animal (total ischemic surface area×0.8 mm (thickness)).\nThe mean volumes (.+−.S.E.M.) for each animal randomly assigned to the four experimental groups were compared using one-way ANOVA (one way ANOVA is a statistical method which compares 3 or more unmatched groups) followed by Dunnett's t-test (both methods incorporated in Statview 512+software, BarinPower, Calabasas, Calif., USA).",
  "key": {"[1]": {"conditions": "Formula 7 10 mg/kg i.v. over 1 hour"}, "[2]": {"conditions": "Formula 7 100 mg/kg i.v. over 1 hour"}},
  "data": [
    {"smiles": "NC(=O)OC[C@@H](O)c1ccccc1Cl", "note": "[test compound]", "values": [
      {"measurement": "Mean Infarct Volume ± S.E.M., Cortex Volume", "setting": "[1]", "result": "201.0 ± 23.9 ^ mm^3"},
      {"measurement": "Mean Infarct Volume ± S.E.M., Striatum", "setting": "[1]", "result": "75.9 ± 2.6^ mm^3"},
      {"measurement": "Mean Infarct Volume ± S.E.M., Total", "setting": "[1]", "result": "276.9 ± 25.4^ mm^3"},
      {"measurement": "Mean Infarct Volume ± S.E.M., Cortex Volume", "setting": "[2]", "result": "98.8 ± 29.5^1 mm^3"},
      {"measurement": "Mean Infarct Volume ± S.E.M., Striatum", "setting": "[2]", "result": "63.0 ± 5.9^2 mm^3"},
      {"measurement": "Mean Infarct Volume ± S.E.M., Total", "setting": "[2]", "result": "161.9 ± 34.3^1 mm^3"}
    ]}
  ]
}
